Laboratory results reported in PubChem BioAssay (NCI).
Where “and” joins values, the source holds several entries; their conditions need not be identical. Equal values may be shown once.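 Tested at 5 concentrations; 48 h exposure; 96-well plates; endpoints linearly interpolated, else capped at highest concentration. GI50 = concentration required for 50% inhibition of growth. Definition used: TGI = concentration required for complete inhibition of growth.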 Peptide text beside a SMILES is read from it. * marks the point of attachment. Boc = CC(C)(C)OC(=O)*

Tests used:
Experiment in all cases: DTP human tumour cell line panel, 48 h
MCF7 breast = test system: MCF7 breast
MDA-MB-231 breast = test system: MDA-MB-231 breast
786-0 renal = test system: 786-0 renal
SR leukemia = test system: SR leukemia
SF-539 CNS = test system: SF-539 CNS
HOP-62 NSCLC = test system: HOP-62 NSCLC
BT-549 breast = test system: BT-549 breast
CCRF-CEM leukemia = test system: CCRF-CEM leukemia

C[C@@H](C[C@@H](O)[C@H](O)C(C)(C)O)[C@H]1CC=C2[C@]3(C)[C@H](O)C[C@H]4C(C)(C)[C@H](O)CC[C@]4(C)[C@H]3CC[C@@]21C
TGI (MCF7 breast): 36.7 µM | TGI (MDA-MB-231 breast): 27.4 µM | TGI (786-0 renal): 28.2 µM | TGI (SR leukemia): > 100 µM | TGI (SF-539 CNS): 35.7 µM | TGI (HOP-62 NSCLC): 28.5 µM | TGI (BT-549 breast): 31.1 µM | TGI (CCRF-CEM leukemia): 40.8 µM

CN1C(=O)[C@@]2(C=CC3(CC2)OCCO3)c2ccccc21
TGI (MCF7 breast): > 50 µM | TGI (MDA-MB-231 breast): > 50 µM | TGI (786-0 renal): > 50 µM | TGI (SR leukemia): > 50 µM | TGI (HOP-62 NSCLC): > 50 µM | TGI (BT-549 breast): > 50 µM | TGI (CCRF-CEM leukemia): > 50 µM

O=C(Nc1ccccc1)N1N=C(c2ccccc2)C1c1ccccc1 (stereo not given)
TGI (MCF7 breast): 51.8 µM | TGI (MDA-MB-231 breast): > 100 µM | TGI (786-0 renal): 36.6 µM | TGI (SF-539 CNS): 34.5 µM | TGI (BT-549 breast): 64.4 µM

CSCCC(NC(=O)C(CC(C)C)NC(=O)CNC(=O)OC(C)(C)C)C(=O)N(C)C (stereo not drawn) (Boc-Gly-Leu-Met-NMe2; configuration not given here)
TGI (MCF7 breast): > 100 µM | TGI (MDA-MB-231 breast): > 100 µM | TGI (786-0 renal): > 100 µM | TGI (SR leukemia): > 100 µM | TGI (SF-539 CNS): > 100 µM | TGI (BT-549 breast): > 100 µM | TGI (CCRF-CEM leukemia): > 100 µM

C=CCN1C(=O)/C(=C/c2ccc(Cl)cc2)N=C1SC1OC(COC(C)=O)C(OC(C)=O)C(OC(C)=O)C1OC(C)=O (stereo not given)
TGI (MCF7 breast): > 100 µM | GI50 (MDA-MB-231 breast): 7.84 µM and 23.6 µM | TGI (MDA-MB-231 breast): 43.6 µM and 80.9 µM | TGI (786-0 renal): 12.6 µM | TGI (SR leukemia): > 100 µM and 36.6 µM | TGI (SF-539 CNS): > 100 µM | GI50 (HOP-62 NSCLC): 5.66 µM and 21.9 µM | TGI (HOP-62 NSCLC): 20.6 µM and 62.6 µM | TGI (BT-549 breast): > 100 µM and 84.1 µM | TGI (CCRF-CEM leukemia): > 100 µM

CC(=O)c1nccc2c1c(C)nc1ccccc12
TGI (MCF7 breast): > 100 µM | TGI (MDA-MB-231 breast): > 100 µM | TGI (SR leukemia): > 100 µM | TGI (SF-539 CNS): > 100 µM | TGI (HOP-62 NSCLC): > 100 µM | TGI (BT-549 breast): > 100 µM | TGI (CCRF-CEM leukemia): 68.6 µM

Cc1ccc(Nc2nnc3n2S(=O)(=O)c2cc(C)c(Cl)cc2S3)cc1
TGI (MCF7 breast): > 100 µM | TGI (MDA-MB-231 breast): 82.4 µM | TGI (786-0 renal): 35.5 µM | TGI (SR leukemia): 7.85 µM | TGI (SF-539 CNS): 14.7 µM | TGI (HOP-62 NSCLC): 51.8 µM | TGI (BT-549 breast): 31.3 µM

COC(=O)CNC(=O)/C=C/[C@H](O[Si](C)(C)C(C)(C)C)[C@H](/C=C/C(=O)NCC(=O)OC)O[Si](C)(C)C(C)(C)C
TGI (MCF7 breast): > 25 µM | TGI (MDA-MB-231 breast): > 25 µM | TGI (786-0 renal): > 25 µM | TGI (SR leukemia): > 25 µM | TGI (SF-539 CNS): > 25 µM | TGI (HOP-62 NSCLC): > 25 µM | TGI (BT-549 breast): > 25 µM | TGI (CCRF-CEM leukemia): > 25 µM

Cc1ccc(S(=O)(=O)NC(=O)NS(=O)(=O)O)cc1
TGI (MCF7 breast): > 100 µM | TGI (MDA-MB-231 breast): > 100 µM | TGI (786-0 renal): > 100 µM | TGI (SR leukemia): > 100 µM | TGI (SF-539 CNS): > 100 µM | TGI (HOP-62 NSCLC): > 100 µM | TGI (BT-549 breast): > 100 µM | TGI (CCRF-CEM leukemia): > 100 µM

CCCCC(=C=C1CCCCC1O)C1CCCN1C(=O)OC(C)(C)C (stereo not given)
TGI (MCF7 breast): 31.6 µM | TGI (MDA-MB-231 breast): 30 µM | TGI (786-0 renal): 29.6 µM | TGI (SR leukemia): > 100 µM | TGI (SF-539 CNS): 35.5 µM | TGI (HOP-62 NSCLC): 31.7 µM | TGI (BT-549 breast): 35.4 µM | TGI (CCRF-CEM leukemia): 35 µM

CC(C)[Si]1(C(C)C)OCC2OC(n3cnc4c(N)ncnc43)C(N)C2O[Si](C(C)C)(C(C)C)O1 (stereo not given)
TGI (MCF7 breast): 8.56 µM | TGI (MDA-MB-231 breast): 33.1 µM | TGI (786-0 renal): 28.3 µM | TGI (SR leukemia): > 27.1 µM | TGI (SF-539 CNS): 24.4 µM | TGI (HOP-62 NSCLC): > 49.5 µM | TGI (BT-549 breast): 14.3 µM | TGI (CCRF-CEM leukemia): > 71.6 µM

COc1ccccc1OC/C(N=Cc1ccncc1)=N/NC(=O)c1ccncc1
TGI (MCF7 breast): > 100 µM | TGI (MDA-MB-231 breast): > 100 µM | TGI (786-0 renal): > 100 µM | TGI (SF-539 CNS): > 100 µM | TGI (HOP-62 NSCLC): > 100 µM | TGI (BT-549 breast): > 100 µM | TGI (CCRF-CEM leukemia): > 100 µM
